Reference: PMC6095626, “Screening of the Pathogen Box for inhibitors with dual efficacy against Giardia lamblia and Cryptosporidium parvum” (PLoS Neglected Tropical Diseases, 2018)

What was measured:
[1] = test system: C. parvum (UGA1 Nluc expressing strain in HCT-8 cells); assay: microbe, parasite or virus in culture; format: cell-based, Cryptosporidium parvum; details: for C. parvum cell growth inhibition in the initial screen: 10 μM; for C. parvum cell growth inhibition in the initial screen / EC50: 48 hours; for EC50: Nluc C. parvum in HCT-8 cells, read-out: C. parvum EC50; for Crypto (10 uM) Mean % inhibition: initial Pathogen Box screen, single concentration 10 µM, inhibition compared to DMSO wells
Protocol: Growth inhibition and EC50 determination assays were performed using UGA1 Nluc expressing C. parvum strain in HCT-8 cells (ATCC^©, Manassas, VA) as previously described. HCT-8 cells were inoculated onto 96-well plates and allowed to grow for 48 hours to 90–100% confluence and then treated with single concentration (10 μM) or serially diluted compounds prior to oocyst infection. C. parvum oocysts were incubated for 10 minutes in 10% bleach at room temperature and then washed with DPBS. […] The cell monolayers were lysed for 1 hour before adding Nano-Glo® luciferase reagent (Promega, Madison, WI), and measuring relative luminescence units (RLU) in an EnVision Plate Reader (Perkin Elmer, Waltham, MA). Several parameters, including reproducibility and reliability, were previously evaluated to optimize this assay for low and high-throughput (HTP) screening of small molecule compounds against C. parvum. EC50 values were calculated using Prism 7 software (GraphPad Software, San Diego, CA).
C. parvum screening against the Pathogen Box compounds was performed as previously described starting at a concentration of 10 μM [23].

[2] = test system: G. lamblia trophozoites (luciferase expressing, WBC6); assay: microbe, parasite or virus in culture; format: cell-based, Giardia lamblia; details: initial Pathogen Box screen, single concentration 16 µM, inhibition compared to DMSO wells
Protocol: Trophozoites were harvested by chilling cultures on ice for 30 minutes and plated by adding 150 μL per well at a concentration of 250,000 cells/mL. Metronidazole (Sigma, St. Louis, MO) was used as a control and was serially diluted 1:2 from 40 μM to 0.04 μM and 150 μL was added to the 150 μL of the G. lamblia trophozoites. Plates were covered in plastic low-evaporation lids, sealed in individual anaerobic BD GasPak Bio-Bags (Becton Dickinson, San Jose, CA) and incubated at 37 °C for 24 hours. […] A duplicate plate was concurrently set up and assayed using a MOXI Z Mini Automated Cell Counter Kit (Orflo, Ketchum, ID). Results obtained from the bioluminescence assay and the MOXI counter data were compared to evaluate their correlation to each another. Albendazole (Sigma, St. Louis, MO), an alternative giardiasis therapeutic, was assayed in concentrations from 4 μM to 0.004 μM with only the luciferase expressing G. lamblia cells. […]

Row | Structure (SMILES) | C. parvum cell growth inhibition in the initial screen [1] | EC50 [1] | Crypto (10 uM) Mean % inhibition [1] | Giardia (16 uM) Mean % inhibition [2]
1 | N#Cc1ccc(-c2cnc(N)c(-c3ccc(C(N)=O)cc3)n2)cc1 [MMV085499] | ≥ 95% | 1930 nM | 95% | 61%
2 | c1coc(CNc2nc(N3CCCCC3)nc3ccccc23)c1 [MMV676401] |  |  | 48% | 76%
3 | CN1CCN(c2nccc3[nH]c(-c4cccc(F)c4)cc23)CC1 [MMV393144] |  |  | 50% | 77%
4 | Cc1ccc(NC(=O)CC2COc3ccccc3O2)cc1Cl (stereo not shown) [MMV676431] |  |  | X* (Mean or standard deviation are negative but not significantly different from the control to be a growth promoter) | 18%
5 | CCc1cc(=O)n(C)c(SC(C)C(=O)Nc2ccc(F)cc2)n1 (stereo not shown) [MMV688980] |  |  | X* (Mean or standard deviation are negative but not significantly different from the control to be a growth promoter) | 17%
6 | COc1ccc(OC(C)C(=O)Nc2ccc(Cl)cc2C)cc1 (stereo not shown) [MMV202458] |  |  | X* (Mean or standard deviation are negative but not significantly different from the control to be a growth promoter) | 11%
7 | Cc1ccc2c(c1C)NC(=O)C21NN=C(c2ccccc2)S1 (stereo not shown) [MMV019189] | ≥ 95% | 2520 nM | 95% | X* (Mean or standard deviation are negative but not significantly different from the control to be a growth promoter)
8 | COc1ccccc1CNC(=O)c1cc(C2CC2)nc2c1cnn2C(C)C [MMV020517] |  |  | X* (Mean or standard deviation are negative but not significantly different from the control to be a growth promoter) | X* (Mean or standard deviation are negative but not significantly different from the control to be a growth promoter)
9 | CO[C@@H]1CN(c2ccc(C#CC3(O)CN4CCC3CC4)c(Cc3ccccc3)n2)C[C@H]1O (stereo partly shown) [MMV688415] |  |  | X* (Mean or standard deviation are negative but not significantly different from the control to be a growth promoter) | X* (Mean or standard deviation are negative but not significantly different from the control to be a growth promoter)
10 | COc1cc(N[C@@H](C)CCCN)c2ncccc2c1 [MMV000023] |  |  | 14% | 47%
11 | CC(C)(C)CN1C(=O)C(c2ccccc2)(c2ccccc2)N=C1N [MMV026550] |  |  | X* (Mean or standard deviation are negative but not significantly different from the control to be a growth promoter) | 35%
12 | O=C([C@@H](c1ccc(Cl)cc1)c1cccnc1)N1CCN(c2ccc(C(F)(F)F)cc2)CC1 [MMV689244] |  |  | X* (Mean or standard deviation are negative but not significantly different from the control to be a growth promoter) | 33%
13 | CN1CCN(c2nccc3nc(-c4ccc(F)c(F)c4)[nH]c23)CC1 [MMV676260] |  |  | 33% | 29%
14 | O=C(NC1CC1)c1ccc(CSCc2ccccc2Cl)o1 [MMV007803] |  |  | X* (Mean or standard deviation are negative but not significantly different from the control to be a growth promoter) | 6%
15 | CC(=O)NC[C@@H]1CN(c2ccc(N3CCOCC3)c(F)c2)C(=O)O1 [MMV687803] |  |  | X* (Mean or standard deviation are negative but not significantly different from the control to be a growth promoter) | X* (Mean or standard deviation are negative but not significantly different from the control to be a growth promoter)
16 | CCN(CC)S(=O)(=O)c1ccc(C(=O)Nc2cc(C)nn2-c2nc(C)c(C)c(=O)[nH]2)cc1 [MMV595321] |  |  | 92% | 26%
17 | Cc1ccc2nc(C)c(-c3ccn(Cc4ccccc4)n3)n2c1 [MMV688939] |  |  | 73% | X* (Mean or standard deviation are negative but not significantly different from the control to be a growth promoter)
18 | CC1CCCN(C(=O)C(C)Nc2cc(Cl)ccc2N2CCOCC2)C1 (stereo not shown) [MMV020388] |  |  | X* (Mean or standard deviation are negative but not significantly different from the control to be a growth promoter) | 62%

Row | Structure (SMILES) | C. parvum cell growth inhibition in the initial screen [1] | EC50 [1] | Crypto (10 uM) Mean % inhibition [1] | Giardia (16 uM) Mean % inhibition [2]
19 | COC(=O)c1c(NC(=O)c2cc3ccccc3oc2=O)sc2c1CCN(Cc1ccccc1)C2 [MMV676480] |  |  | 63% | 7%
20 | CNCC[C@H](Oc1ccc(C(F)(F)F)cc1)c1ccccc1 [MMV001561] |  |  | X* (Mean or standard deviation are negative but not significantly different from the control to be a growth promoter) | 15%
21 | CC(C(=O)Nc1ccc2oc(-c3ccncc3)nc2c1)c1ccccc1 (stereo not shown) [MMV688471] |  |  | X* (Mean or standard deviation are negative but not significantly different from the control to be a growth promoter) | 19%
22 | CC(C)(C)OC(=O)N1CCN(c2cc(-c3ccc(Oc4ccccc4)cc3)n[nH]2)CC1 [MMV676057] |  |  | X* (Mean or standard deviation are negative but not significantly different from the control to be a growth promoter) | 52%
23 | O=C(Nc1ccccc1)c1ccc(-c2cc3ccncc3cc2OC2CCNCC2)s1 [MMV024035] |  |  | 27% | 66%
24 | CCCCc1ccc(NC(=O)Nc2ccc(O[C@H]3CCCC[C@@H]3N(C)c3ccccc3)c(F)c2)cc1 [MMV676063] |  |  | 82% | 29%
25 | CC(C)(C)n1nc(Cc2ccc(F)c(Cl)c2)c2c(N)ncnc21 [MMV688852] |  |  | 80% | 27%
26 | Cc1cc(=O)[nH]c(-n2nc(C)cc2C)n1 [MMV393995] |  |  | 86% | X* (Mean or standard deviation are negative but not significantly different from the control to be a growth promoter)
27 | CCOC(=O)c1cc(-c2csc(Nc3c(C)cc(C)cc3C)n2)on1 [MMV676461] |  |  | 76% | 31%
28 | Cc1cc(OCC(=O)NCc2ccccc2)c2cc(Br)ccc2n1 [MMV687747] |  |  | 54% | 32%
29 | Cc1[nH]c2cc(F)cc(F)c2c(=O)c1-c1ccc(Oc2ccc(OC(F)(F)F)cc2)cc1 [MMV671636] |  |  | X* (Mean or standard deviation are negative but not significantly different from the control to be a growth promoter) | 18%
30 | N=C(N)c1ccc(-c2cc(-c3ccccc3)on2)cc1 [MMV688514] |  |  | 79% | 36%
31 | COc1ccc(-c2nn(C(C)C)c3ncnc(N)c23)cc1OC [MMV675993] |  |  | 89% | X* (Mean or standard deviation are negative but not significantly different from the control to be a growth promoter)
32 | CC(C)(C)c1ccc(N[C@@H]2CCCC[C@H]2NC(=O)c2ccco2)cc1 [MMV675969] |  |  | X* (Mean or standard deviation are negative but not significantly different from the control to be a growth promoter) | 32%
33 | CC(Oc1cccc(Cl)c1)C(=O)Nc1ccc2oc(-c3ccncc3)nc2c1 (stereo not shown) [MMV688472] |  |  | X* (Mean or standard deviation are negative but not significantly different from the control to be a growth promoter) | 55%
34 | Cc1cccc(C(=O)Nc2ccnc(N(C)C3CCN(CC(C)C)CC3)c2)c1 [MMV024829] |  |  | X* (Mean or standard deviation are negative but not significantly different from the control to be a growth promoter) | 89%
35 | O=C(C1CCCCC1)N1CC(=O)N2CCc3ccccc3[C@@H]2C1 [MMV002529] |  |  | 55% | 16%
36 | Cc1ccc(C(=O)Nc2ccc(S(=O)(=O)O)c3cc(S(=O)(=O)O)cc(S(=O)(=O)O)c23)cc1NC(=O)c1cccc(NC(=O)Nc2cccc(C(=O)Nc3cc(C(=O)Nc4ccc(S(=O)(=O)O)c5cc(S(=O)(=O)O)cc(S(=O)(=O)O)c45)ccc3C)c2)c1 [MMV637953] |  |  | 36% | 10%
